This note sets out measurements from US12565501B2, “Muscarinic acetylcholine M1 receptor antagonists” (Contineum Therapeutics, Inc., priority 2019, dated 2026).

As usually defined, the IC50 is the concentration at which inhibition is half-maximal.

In this assay the target is T1, human M1 receptor (Homo sapiens, UniProt P11229).
T1 sequence (P11229 1-460): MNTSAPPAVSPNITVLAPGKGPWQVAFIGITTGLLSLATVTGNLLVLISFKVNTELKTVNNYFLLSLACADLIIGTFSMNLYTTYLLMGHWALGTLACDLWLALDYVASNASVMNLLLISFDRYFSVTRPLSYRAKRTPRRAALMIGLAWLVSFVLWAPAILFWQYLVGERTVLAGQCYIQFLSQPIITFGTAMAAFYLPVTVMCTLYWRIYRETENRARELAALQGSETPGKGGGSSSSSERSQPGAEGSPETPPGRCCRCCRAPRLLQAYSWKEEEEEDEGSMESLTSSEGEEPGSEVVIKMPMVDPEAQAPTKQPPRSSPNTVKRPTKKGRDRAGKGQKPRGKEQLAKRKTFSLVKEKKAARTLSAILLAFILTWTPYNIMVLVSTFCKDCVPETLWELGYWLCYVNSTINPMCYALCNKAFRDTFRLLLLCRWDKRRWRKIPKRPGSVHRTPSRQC
Nature of the assay: In vitro functional assay of muscarinic acetylcholine receptor activity (aequorin calcium flux, reversal of EC80 acetylcholine response). The class given is cell-based. The settings on record: CHO-K1 cells stably expressing human M1 receptor with aequorin; acetylcholine at EC80; calcium flux (luminescence); read-out: M1 IC50. As to the method:
CHO-K1 cells stably expressing human M1 receptor with aequorin (Perkin Elmer) were grown in F12 media (Gibco) containing 10% FBS (ATCC), 0.4 mg/mL geneticin (Sigma-Aldrich) and 0.25 mg/mL Zeocin (Invitrogen). Cells were grown as per the manufacturer's protocol. For compound testing, cells were grown to confluency and detached gently with Accutase (Sigma-Aldrich) followed by centrifugation for 5 min at 150× g. Cells were then re-suspended in assay buffer (i.e. DMEM/F-12 HEPES without phenol red (Invitrogen) with 0.1% BSA (Sigma-Aldrich)) at a density of 5×10^6 cells/ml. Under sterile conditions, 5 μM coelenterazine (Invitrogen) was added to the cells, mixed, then incubated at room temperature protected from light, with gentle agitation, for 4 h.
Primary compound plates were prepared in 100% DMSO in opaque 96-well plates (VWR) and serially diluted in half log increments. Secondary compound plates were prepared at 3× concentration in assay buffer. Compounds were added to white, clear bottom tissue culture treated 96-well plates (Fisher Scientific). Coelenterazine-loaded cells were then added at 5×10^5 cells/well.
Compounds and cells were incubated at room temperature for 30 min in the dark. Acetylcholine at the EC80 concentration was added and calcium flux measured using a FlexStation 3 (Molecular Devices). Sigmoidal dose-response curves were generated by measuring luminescence over 40 sec and calculating the area under the curve. Dose response curves and IC50 values were generated using Prism (GraphPad). Compounds were tested at a final concentration range of 100 μM to […] in 0.1% DMSO.
For orientation: Calcium flux is commonly read through the fluorescence of an indicator in the cells.

As for `COc1cncc(C(OCC(=O)N2CC3CCC(C2)N3c2ccc(C#N)cn2)C(F)F)c1` (racemic) [Example 202, 6-(3-(2-(2,2-difluoro-1-(5-methoxypyridin-3-yl)ethoxy)acetyl)-3,8-diazabicyclo[3.2.1]octan-8-yl)nicotinonitrile], the half-maximal inhibitory concentration (IC50) was < 10 nM.

Consider `CC(C)(OCC(=O)N1CC2CCC(C1)N2c1ccc(C#N)cn1)c1cccc2ncnn12` (racemic) [Example 203, 6-(3-(2-((2-([1,2,4]triazolo[1,5-a]pyridin-5-yl)propan-2-yl)oxy)acetyl)-3,8-diazabicyclo[3.2.1]octan-8-yl)nicotinonitrile], for which the IC50 lay in the range of 100 to 1000 nM.

Regarding `CC(C)(OCC(=O)N1CC2CCC(C1)N2c1ccc(C#N)cn1)c1cccc2nccn12` (racemic) [Example 204, 6-(3-(2-((2-(imidazo[1,2-a]pyridin-5-yl)propan-2-yl)oxy)acetyl)-3,8-diazabicyclo[3.2.1]octan-8-yl)nicotinonitrile], the IC50 was in the range of 100 to 1000 nM.

Consider `CCC(OCC(=O)N1CC2CCC(C1)N2c1ccc(C#N)cn1)c1ccc(F)c(Br)c1` (racemic) [Example 216, 6-(3-(2-(1-(3-bromo-4-fluorophenyl)propoxy)acetyl)-3,8-diazabicyclo[3.2.1]octan-8-yl)nicotinonitrile], for which the IC50 is < 10 nM.

As to `CCC(OCC(=O)N1CC2CCC(C1)N2c1ccc(C#N)cn1)c1cc(F)cc(Br)c1` (racemic) [Example 218, 6-(3-(2-(1-(3-bromo-5-fluorophenyl)propoxy)acetyl)-3,8-diazabicyclo[3.2.1]octan-8-yl)nicotinonitrile], the IC50 is < 10 nM.

With `N#Cc1ccc(N2C3CCC2CN(C(=O)COC2(c4ccc(F)c(F)c4)CCOC2)C3)nc1` (racemic) [Example 269, 6-(3-(2-((3-(3,4-difluorophenyl)tetrahydrofuran-3-yl)oxy)acetyl)-3,8-diazabicyclo [3.2.1]octan-8-yl)nicotinonitrile], the IC50 was in the range of 100 to 1000 nM.

As to `CC(OCCC(=O)N1CC2CCC(C1)N2c1ccc(C#N)cn1)c1cccc2ncnn12` (racemic) [Example 308, 6-(3-(3-(1-([1,2,4]triazolo[1,5-a]pyridin-5-yl)ethoxy)propanoyl)-3,8-diazabicyclo[3.2.1]octan-8-yl)nicotinonitrile], the IC50 was < 10 nM.

`N#Cc1ccc(N2C3CCC2CN(C(=O)CCOC(c2cccc4ncnn24)C2CC2)C3)nc1` (racemic) [Example 309, 6-(3-(3-([1,2,4]triazolo[1,5-a]pyridin-5-yl(cyclopropyl)methoxy)propanoyl)-3,8-diazabicyclo[3.2.1]octan-8-yl)nicotinonitrile]: the half-maximal inhibitory concentration (IC50) is < 10 nM.

With `CC(OCCC(=O)N1CC2CCC(C1)N2c1ccc(C#N)cn1)c1cccc2ncccc12` (racemic) [Example 311, 6-(3-(3-(1-(quinolin-5-yl)ethoxy)propanoyl)-3,8-diazabicyclo[3.2.1]octan-8-yl)nicotinonitrile], the half-maximal inhibitory concentration (IC50) is < 10 nM.

For the compound `CC(OCCC(=O)N1CC2CCC(C1)N2c1ccc(C#N)cn1)c1cccc2nccnc12` (racemic) [Example 312, 6-(3-(3-(1-(quinoxalin-5-yl)ethoxy)propanoyl)-3,8-diazabicyclo[3.2.1]octan-8-yl)nicotinonitrile], the IC50 was < 10 nM.

As for `COc1cccc(C(CO)CCC(=O)N2CC3CCC(C2)N3c2ccc(C#N)cn2)c1` (racemic) [Example 317, 6-(3-(5-hydroxy-4-(3-methoxyphenyl)pentanoyl)-3,8-diazabicyclo[3.2.1]octan-8-yl)nicotinonitrile], the IC50 was < 10 nM.

With `CC(NCCC(=O)N1CC2CCC(C1)N2c1ccc(C#N)cn1)c1ccc(F)cc1` (stereo in doubt) [Example 7, 6-(3-(3-(((S)-1-(4-fluorophenyl)ethyl)amino)propanoyl)-3,8-diazabicyclo[3.2.1]octan-8-yl)nicotinonitrile], the IC50 lay within 1000 to 10000 nM.

As to `CC(NCC(=O)N1CC2CCC(C1)N2c1ccc(C#N)cn1)c1ccc(F)cc1F` (stereo in doubt) [Example 88, 6-(3-(((S)-1-(2,4-difluorophenyl)ethyl)glycyl)-3,8-diazabicyclo[3.2.1]octan-8-yl)nicotinonitrile], the IC50 is 1000 to 10000 nM.

`CC(COCC(=O)N1CC2CCC(C1)N2c1ccc(C#N)cn1)c1ccccc1` (stereo in doubt) [Example 185, 6-(3-(2-((S)-2-phenylpropoxy)acetyl)-3,8-diazabicyclo[3.2.1]octan-8-yl)nicotinonitrile]: the IC50 is 100 to 1000 nM.

Turning to `N#Cc1ccc(N2[C@@H]3CC[C@H]2CN(C(=O)CCNC2(c4ccccc4)CC2)C3)nc1` [Example 2, 6-(3-(3-((1-phenylcyclopropyl)amino)propanoyl)-3,8-diazabicyclo[3.2.1]octan-8-yl)nicotinonitrile], the IC50 is 100 to 1000 nM.

On to `N#Cc1ccc(N2[C@@H]3CC[C@H]2CN(C(=O)CCNC2(c4cccc(F)c4)CC2)C3)nc1` [Example 4, 6-(3-(3-((1-(3-fluorophenyl)cyclopropyl)amino)propanoyl)-3,8-diazabicyclo[3.2.1]octan-8-yl)nicotinonitrile], for which the IC50 is 10 to 100 nM.

As for `N#Cc1ccc(N2[C@@H]3CC[C@H]2CN(C(=O)CCNC2(c4ccc(F)cc4)CC2)C3)nc1` [Example 5, 6-(3-(3-((1-(4-fluorophenyl)cyclopropyl)amino)propanoyl)-3,8-diazabicyclo[3.2.1]octan-8-yl)nicotinonitrile], the concentration for half-maximal inhibition (IC50) lay within 10 to 100 nM.

In the case of `C[C@H](NCCC(=O)N1C[C@H]2CC[C@@H](C1)N2c1ccc(C#N)cn1)c1ccc(F)cc1` [Example 6, 6-(3-(3-(((S)-1-(4-fluorophenyl)ethyl)amino)propanoyl)-3,8-diazabicyclo[3.2.1]octan-8-yl)nicotinonitrile], the IC50 was in the range of 1000 to 10000 nM.

For `C[C@H](NCCC(=O)N1C[C@H]2CC[C@@H](C1)N2c1ccc(C#N)cn1)c1ccc(F)c(F)c1` [Example 8, 6-(3-(3-(((S)-1-(3,4-difluorophenyl)ethyl)amino)propanoyl)-3,8-diazabicyclo[3.2.1]octan-8-yl)nicotinonitrile], the IC50 lay within 100 to 1000 nM.

For the compound `C[C@H](NCCC(=O)N1C[C@H]2CC[C@@H](C1)N2c1ccc(C#N)cn1)c1ccc(F)cc1F` [Example 9, 6-(3-(3-(((S)-1-(2,4-difluorophenyl)ethyl)amino)propanoyl)-3,8-diazabicyclo[3.2.1]octan-8-yl)nicotinonitrile], the 50% inhibitory concentration (IC50) was 100 to 1000 nM.

Regarding `N#Cc1ccc(N2[C@@H]3CC[C@H]2CN(C(=O)CCNC2(c4ccc(Cl)c(Cl)c4)CC2)C3)nc1` [Example 10, 6-(3-(3-((1-(3,4-dichlorophenyl)cyclopropyl)amino)propanoyl)-3,8-diazabicyclo[3.2.1]octan-8-yl)nicotinonitrile], the IC50 was < 10 nM.

Turning to `N#Cc1ccc(N2[C@@H]3CC[C@H]2CN(C(=O)CCNC2(c4ccc(F)c(Br)c4)CC2)C3)nc1` [Example 11, 6-(3-(3-((1-(3-bromo-4-fluorophenyl)cyclopropyl)amino)propanoyl)-3,8-diazabicyclo[3.2.1]octan-8-yl)nicotinonitrile], the IC50 was < 10 nM.

With `N#Cc1ccc(N2[C@@H]3CC[C@H]2CN(C(=O)CCNC2(c4cc(Cl)cc(Br)c4)CC2)C3)nc1` [Example 12, 6-(3-(3-((1-(3-bromo-5-chlorophenyl)cyclopropyl)amino)propanoyl)-3,8-diazabicyclo[3.2.1]octan-8-yl)nicotinonitrile], the concentration for half-maximal inhibition (IC50) fell in the range of 100 to 1000 nM.

As for `N#Cc1ccc(N2C3CCC2CN(C(=O)CCNC2(c4cccc(C#N)c4)CC2)C3)nc1` [Example 13, 6-(3-(3-((1-(3-cyanophenyl)cyclopropyl)amino)propanoyl)-3,8-diazabicyclo[3.2.1]octan-8-yl)nicotinonitrile], the half-inhibitory concentration (IC50) lay within 10 to 100 nM.

Consider `N#Cc1ccc(C2(NCCC(=O)N3CC4CCC(C3)N4c3ccc(C#N)cn3)CC2)cc1` [Example 14, 6-(3-(3-((1-(4-cyanophenyl)cyclopropyl)amino)propanoyl)-3,8-diazabicyclo[3.2.1]octan-8-yl)nicotinonitrile], for which the 50% inhibitory concentration (IC50) is 1000 to 10000 nM.

Regarding `COc1ccccc1C1(NCCC(=O)N2CC3CCC(C2)N3c2ccc(C#N)cn2)CC1` [Example 15, 6-(3-(3-((1-(2-methoxyphenyl)cyclopropyl)amino)propanoyl)-3,8-diazabicyclo[3.2.1]octan-8-yl)nicotinonitrile], the IC50 lay in the range of 10 to 100 nM.

On to `COc1cccc(C2(NCCC(=O)N3CC4CCC(C3)N4c3ccc(C#N)cn3)CC2)c1` [Example 16, 6-(3-(3-((1-(3-methoxyphenyl)cyclopropyl)amino)propanoyl)-3,8-diazabicyclo[3.2.1]octan-8-yl)nicotinonitrile], for which the IC50 lay in the range of 10 to 100 nM.
